What all share (format): cell-based
Experiment [1] concerns Staphylococcus aureus (ATCC 25923) biofilm. Put plainly: Biofilm inhibition, crystal violet staining. The conditions noted are these: for Phenotype: planktonic growth vs biofilm formation; for IC50: Staphylococcus aureus, ATCC25923; for MIC/IC50 Biofilm: ratio of MIC to IC50 of biofilm inhibition. Also noted: MIC/IC50 Biofilm: unit not given here. Here is the method:
Biofilm Inhibition Protocol for S. aureus (ATCC 25923). A serial two-fold dilution of 2× bromophenazine small molecule concentration was made in 100 μL tryptic soy broth (TSB) medium with 0.5% glucose were delivered into 0.1% gelatin (Millipore) coated 96-well tissue culture plates. […] To each well, 100 μL of TSB with 0.5% glucose containing 2×10^6 CFU/mL Staphylococcus aureus cells, prepared from fresh culture (OD600 of 0.8), was added. The plates were incubated at 37° C. for 24 hours. The wells were gently rinsed by submerging the entire plates in a tub of cold, running tap water. The wells were then fixed with 200 μL methanol for 15 minutes. After the plates were air dried, the biofilms were stained with 100 μL of 1% crystal violet for 10 minutes. The plates were again rinsed with running water. After drying in air, quantitative assessment of biofilm formation was obtained by extracting the crystal violet associated with the remaining biofilm with 100 μL per well of the following bleaching solution (methanol:glacial acetic acid:water (v/v/v)=4:1:5). This bleaching solution dissolved the bound crystal violet and produced a violet-colored solution in each well. The intensity of coloration was determined by measuring the absorbance at 540 nm.

Experiment [2] has as its system Acinetobacter baumannii (ATCC 19606) pre-formed biofilm. The experiment in a line: Biofilm dispersion, crystal violet. The conditions noted are these: for percent biofilm dispersion at 100 µM: Acinetobacter baumannii, ATCC19606, 24 h. Here is the method:
Biofilm Dispersion Protocol for A. baumannii (ATCC 19606): To a 96-well plate was added a volume of 100 μL Mueller-Hinton broth that was inoculated with ˜7×10^6 colony forming units per milliliter (corresponding to an OD600 of 0.01 prepared directly from an overnight culture). Two columns of wells were left blank to serve as our background wells. A lid was placed on the 96-well plate which was wrapped in suran wrap, placed in a humidifying chamber and incubated under static conditions at room temperature for 24 hours to establish bacterial biofilms. Following this initial incubation at room temperature, the media and planktonic bacteria were then removed from 96-well plates and the wells were then washed with water. Fresh medium was then added and series of ten two-fold serial dilutions of text compound were made in the 96-well plate using a multichannel pipette. A lid was then placed on 96-well plate which was then wrapped in suran wrap, placed in a humidifying chamber and incubated under static conditions at 37° C. for 24 hours. Following this second incubation to test compounds against pre-formed biofilms, the media and planktonic bacteria were again removed from 96-well plates and the wells were then washed with water. The bacterial biofilms within the microtiter wells were stained with 200 μL of an aqueous 0.1% crystal violet solution that was allowed to stand for 10-20 minutes. The crystal violet stain was then removed, the wells were rinsed with water and dried. The crystal violet stain that remained on the inside of the wells (i.e., stained bacterial biofilm) on the inside of the wells was solubilized by the addition of 200 μL ethanol and absorbance was read at OD540 using a spectrophotometer. Note: The concentration range tested for each compound was 0.2-100 μM. Single data points for all compounds and DMSO controls were tested in two replicate rows in 96-well plates and corresponding absorbance readings were averaged for the quantification of remaining bacterial biofilms. Reported percent dispersion of biofilms was determined by the comparison of compound treated wells (the average of the two replicate wells) versus vehicle control wells without compound following background subtraction (i.e., an empty, untreated well) and reported from two independent experiments. DMSO was serially diluted at the same concentration as test compounds with a top concentration of 1% v/v.

Experiment [3] concerns Staphylococcus aureus (ATCC 25923). The experiment in a line: MIC broth microdilution (CLSI), Luria Broth. The conditions noted are these: for fold more potent than compound 1: from MIC. In outline: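 Two-fold serial dilutions (0.10–100 μM, eleven points) in Luria Broth, each well inoculated with 10^5 cells from log-phase culture (OD600 0.5), per CLSI broth microdilution. DMSO vehicle up to 1% v/v as negative control; kanamycin positive control for the staphylococci.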

Where [4] appears, read: S. aureus ATCC 25923, single replicate screen, read-out: Biofilm Inhibition IC50.
[5] abbreviates: A. baumannii ATCC 19606, read-out: % Biofilm Dispersion at 100 μM.
[6] abbreviates: Staphylococcus aureus, ATCC25923, Table 2, S. aureus ATCC 25923, Luria Broth, read-out: MIC.
Setting [7] is: Table 2, S. aureus ATCC 25923, Luria Broth, read-out: MIC.
Setting [8] is: S. aureus, three independent experiments, read-out: Biofilm inhibition IC50 (triplicate).
[9] abbreviates: read-out: % Biofilm Dispersion at 100 μM, A. baumannii ATCC 19606.
Setting [10] is: Staphylococcus aureus, ATCC25923, Table 1, ATCC 25923, range tested 0.10 to 100 μM, read-out: Staphylococcus aureus MIC.
Where [11] appears, read: Staphylococcus aureus, ATCC25923, Table 1, ATCC 25923, read-out: Staphylococcus aureus MIC.

Like-named read-outs stand apart in the source and are kept apart here.

As to `O=C(OCCc1ccccc1)Oc1c(Br)cc(Br)c2nc3ccccc3nc12` [Compound 8a], in experiment [1] (S. aureus ATCC 25923), the Phenotype entry is recorded as “antibacterial” and the “MIC/IC50 Biofilm” value stood at 2.1. In addition, in experiment [1] (setting [4]), the IC50 stood at 760 nM. Besides, the “Biofilm Dispersal Agent?” value in experiment [2] (A. baumannii ATCC 19606) was “Yes”. Also, in experiment [2] (setting [5]), the percent biofilm dispersion at 100 µM is 32 ± 4%. The MIC in experiment [3] (setting [6]) was in the range of 0.78 to 1.56 µM. The MIC in experiment [3] (setting [7]) came to 1.56 µM.
On to `O=C(OCC(Cl)(Cl)Cl)Oc1c(Br)cc(Br)c2nc3ccccc3nc12` [Compound 27a], for which, in experiment [1] (S. aureus ATCC 25923), the Phenotype entry is “antibacterial” and the “MIC/IC50 Biofilm” value worked out at 1.0. For the same molecule, in experiment [1] (setting [4]), the IC50 came to 760 nM. In addition, the “Biofilm Dispersal Agent?” value in experiment [2] (A. baumannii ATCC 19606) was “Yes”. Besides, in experiment [2] (setting [5]), the percent biofilm dispersion at 100 µM turned out to be 38 ± 6%. Besides, the MIC in experiment [3] (setting [6]) is 0.78 to 1.56 µM. In experiment [3] (setting [7]), the MIC came to 0.78 µM.
As to `O=C(Oc1c(Br)cc(Br)c2nc3ccccc3nc12)c1ccc(Cl)cc1` [Compound 14a], the IC50 in experiment [1] (setting [4]) is 640 nM; in experiment [1] (setting [8]), 770 nM. Also, the “Biofilm Dispersal Agent?” value in experiment [2] (A. baumannii ATCC 19606) is listed as “No”. In addition, the percent biofilm dispersion at 100 µM in experiment [2] (setting [5]) turned out to be 7 ± 2%. Also, the MIC in experiment [3] (setting [6]) is above 100 µM.
As to `Oc1c(Br)cc(Br)c2nc3ccccc3nc12` [Compound 11, 2,4-Dibromophenazin-1-ol], the Phenotype result in experiment [1] (S. aureus ATCC 25923) is reported as “antibacterial”. Further, the IC50 in experiment [1] (setting [4]) amounted to 410 nM. For the same molecule, the “Biofilm Dispersal Agent?” value in experiment [2] (A. baumannii ATCC 19606) is reported as “Yes”. The percent biofilm dispersion at 100 µM in experiment [2] (setting [9]) was in the range of 53 to 57%. The values for the MIC in experiment [3] (setting [10]), in experiment [3] (setting [11]) and in experiment [3] (setting [6]) were 1.56 µM, 0.55 µg/mL and 1.56 µM, respectively. In addition, the “fold more potent than compound 1” value in experiment [3] (Staphylococcus aureus) worked out at 32 fold.
Take `O=C(Oc1c(Br)cc(Br)c2nc3ccccc3nc12)c1ccco1` [Compound 23a]: in experiment [1] (S. aureus ATCC 25923), the Phenotype entry is recorded as “antibacterial”. In addition, the IC50 in experiment [1] (setting [4]) stood at 760 nM. For the same molecule, in experiment [2] (A. baumannii ATCC 19606), the “Biofilm Dispersal Agent?” value is on record as “No”. Further, the percent biofilm dispersion at 100 µM in experiment [2] (setting [5]) was 17 ± 14%. The MIC is 0.78 to 1.56 µM in experiment [3] (setting [6]) and 0.78 µM in experiment [3] (setting [7]).
As to `O=C(Oc1c(Br)cc(Br)c2nc3ccccc3nc12)c1ccccc1` [Compound 23, 2,4-Dibromophenazin-1-yl benzoate], the Phenotype entry in experiment [1] (S. aureus ATCC 25923) is “antibacterial”. For the same molecule, the IC50 in experiment [1] (setting [4]) was found to be 1710 nM. For the same molecule, in experiment [1] (S. aureus ATCC 25923), the “MIC/IC50 Biofilm” value is 0.9. For the same molecule, the “Biofilm Dispersal Agent?” value in experiment [2] (A. baumannii ATCC 19606) is listed as “No”. Further, in experiment [2] (setting [9]), the percent biofilm dispersion at 100 µM was -1 ± 6%. In addition, the values for the MIC in experiment [3] (setting [10]), in experiment [3] (setting [11]) and in experiment [3] (setting [6]) were 1.56 µM, 0.72 µg/mL and 1.56 µM, respectively.
As to `O=C(CCCC(=O)Oc1c(Br)cc(Br)c2nc3ccccc3nc12)Oc1c(Br)cc(Br)c2nc3ccccc3nc12` [Compound 5a], the IC50 in experiment [1] (setting [4]) was determined as 12100 nM. Besides, in experiment [1] (S. aureus ATCC 25923), the “MIC/IC50 Biofilm” value is on record as above 8.3. Besides, the “Biofilm Dispersal Agent?” value in experiment [2] (A. baumannii ATCC 19606) was “Yes”. Moreover, the percent biofilm dispersion at 100 µM in experiment [2] (setting [5]) amounted to 30 ± 3%. The MIC in experiment [3] (setting [6]) was above 100 µM.
Turning to `CCC(=O)Oc1c(Br)cc(Br)c2nc3ccccc3nc12` [Compound 4a], in experiment [1] (S. aureus ATCC 25923), the Phenotype result is reported as “antibacterial” and the “MIC/IC50 Biofilm” value is 1.7. Moreover, the IC50 in experiment [1] (setting [4]) is 920 nM. Also, the “Biofilm Dispersal Agent?” value in experiment [2] (A. baumannii ATCC 19606) is “Yes”. Also, in experiment [2] (setting [5]), the percent biofilm dispersion at 100 µM fell in the range of 53 to 57%. Moreover, the minimal inhibitory concentration (MIC) in experiment [3] (setting [6]) lay in the range of 0.78 to 1.56 µM. Further, the MIC in experiment [3] (setting [7]) was found to be 1.56 µM.
`CC(=O)Oc1c(Br)cc(Br)c2nc3ccccc3nc12` [Compound 21, 2,4-Dibromophenazin-1-yl acetate]: the Phenotype result in experiment [1] (S. aureus ATCC 25923) is listed as “antibacterial”. In experiment [1] (setting [4]), the 50% inhibitory concentration (IC50) came to 420 nM. Moreover, the “MIC/IC50 Biofilm” value in experiment [1] (S. aureus ATCC 25923) amounted to 2.8. Further, in experiment [2] (A. baumannii ATCC 19606), the “Biofilm Dispersal Agent?” value is “Yes”. Further, in experiment [2] (setting [9]), the percent biofilm dispersion at 100 µM lay within 53 to 57%. The minimum inhibitory concentration (MIC) in experiment [3] (setting [10]) was in the range of 0.78 to 1.56 µM; in experiment [3] (setting [11]), 0.31 to 0.62 µg/mL; in experiment [3] (setting [6]), 0.78 to 1.56 µM. Further, the “fold more potent than compound 1” value in experiment [3] (Staphylococcus aureus) turned out to be 32 fold.
Consider `O=C(Oc1c(Br)cc(Br)c2nc3ccccc3nc12)c1ccc(Br)cc1` [Compound 12a], for which the values for the 50% inhibitory concentration (IC50) in experiment [1] (setting [4]) and in experiment [1] (setting [8]) were 810 nM and 1130 nM, respectively. Further, in experiment [2] (A. baumannii ATCC 19606), the “Biofilm Dispersal Agent?” value is on record as “No”. Moreover, in experiment [2] (setting [5]), the percent biofilm dispersion at 100 µM was determined as 5 ± 12%. Further, the minimal inhibitory concentration (MIC) in experiment [3] (setting [6]) is above 100 µM.
As for `O=C(Oc1c(Br)cc(Br)c2nc3ccccc3nc12)c1cccc([N+](=O)[O-])c1` [Compound 15a], in experiment [1] (S. aureus ATCC 25923), the Phenotype entry was “antibacterial” and the “MIC/IC50 Biofilm” value turned out to be 4.3. In experiment [1] (setting [4]), the IC50 amounted to 360 nM. For the same molecule, the “Biofilm Dispersal Agent?” value in experiment [2] (A. baumannii ATCC 19606) is on record as “Yes”. The percent biofilm dispersion at 100 µM in experiment [2] (setting [5]) was found to be 36 ± 2%. Also, in experiment [3] (setting [6]), the minimum inhibitory concentration (MIC) is 0.78 to 1.56 µM. In experiment [3] (setting [7]), the MIC is listed as 1.56 µM.
Regarding `COC(=O)Oc1c(Br)cc(Br)c2nc3ccccc3nc12` [Compound 28a], the Phenotype result in experiment [1] (S. aureus ATCC 25923) is “antibacterial”. In addition, in experiment [1] (setting [4]), the 50% inhibitory concentration (IC50) stood at 770 nM. In addition, in experiment [1] (S. aureus ATCC 25923), the “MIC/IC50 Biofilm” value was 2.0. The “Biofilm Dispersal Agent?” value in experiment [2] (A. baumannii ATCC 19606) was “Yes”. The percent biofilm dispersion at 100 µM in experiment [2] (setting [5]) was 53 to 57%. Further, the MIC was 0.78 to 1.56 µM in experiment [3] (setting [6]) and 1.56 µM in experiment [3] (setting [7]).
Consider `Cc1ccc(C(=O)Oc2c(Br)cc(Br)c3nc4ccccc4nc23)cc1` [Compound 18a], for which the IC50 amounted to 450 nM in experiment [1] (setting [4]) and 550 nM in experiment [1] (setting [8]). In experiment [2] (A. baumannii ATCC 19606), the “Biofilm Dispersal Agent?” value was “No”. For the same molecule, the percent biofilm dispersion at 100 µM in experiment [2] (setting [5]) is -1 ± 6%. For the same molecule, in experiment [3] (setting [6]), the MIC was above 100 µM.

One may read the IC50 as the concentration that gives 50% inhibition. One may read the MIC as the lowest concentration found to suppress growth.
